Several values for one entry are separate records, joined by “and”; a condition that tells them apart may be missing. Equal entries are not always repeated. Toxic doses and inconclusive results are not listed.
Test system: P1534 leukemia ip, CD2F1 mice, survival T/C
Test: NCI In Vivo Anticancer Drug Screen. Data for tumor model P1534 Leukemia (intraperitoneal) in CD2F1 (CDF1) mice
Details: endpoint: mean survival time, higher = longer survival
Description: The antitumor activity of compounds was measured in mice bearing transplantable tumors. Survival or tumor size were measured and the results are expressed as the measurement made in the treated group (T) divided by the measurement made in the vehicle treated control group (C). The tumor model used in this assay is P1534 Leukemia (intraperitoneal) in CD2F1 (CDF1) mice

[1] = dose: 15.6 mg/kg/injection, schedule: Q01DX010 (ip), vehicle: saline
[2] = dose: 31.3 mg/kg/injection, schedule: Q01DX010 (ip), vehicle: saline
[3] = dose: 62.5 mg/kg/injection, schedule: Q01DX010 (ip), vehicle: saline
[4] = dose: 125.0 mg/kg/injection, schedule: Q01DX010 (ip), vehicle: saline
[5] = dose: 12.5 mg/kg/injection, schedule: Q01DX010 (ip), vehicle: saline
[6] = dose: 25.0 mg/kg/injection, schedule: Q01DX010 (ip), vehicle: saline
[7] = dose: 50.0 mg/kg/injection, schedule: Q01DX010 (ip), vehicle: saline
[8] = dose: 1.25 mg/kg/injection, schedule: Q01DX010 (ip), vehicle: saline
[9] = dose: 5.0 mg/kg/injection, schedule: Q01DX010 (ip), vehicle: saline
[10] = dose: 10.0 mg/kg/injection, schedule: Q01DX010 (ip), vehicle: saline
[11] = dose: 100.0 mg/kg/injection, schedule: Q01DX010 (ip), vehicle: saline
[12] = dose: 200.0 mg/kg/injection, schedule: Q01DX010 (ip), vehicle: saline
[13] = dose: 400.0 mg/kg/injection, schedule: Q01DX010 (ip), vehicle: saline
[14] = dose: 250.0 mg/kg/injection, schedule: Q01DX010 (ip), vehicle: saline

## O=CC1CO1 (centres undefined)
dose: 13.0 mg/kg/injection, schedule: Q01DX010 (ip), vehicle: saline
  T/C: 107 % of control
dose: 19.0 mg/kg/injection, schedule: Q01DX010 (ip), vehicle: saline
  T/C: 107 % of control
dose: 29.0 mg/kg/injection, schedule: Q01DX010 (ip), vehicle: saline
  T/C: 111 % of control
dose: 29.0 mg/kg/injection, schedule: Q01DX010 (ip), vehicle: steriod suspending solution
  T/C: 100 % of control
dose: 44.0 mg/kg/injection, schedule: Q01DX010 (ip), vehicle: saline
  T/C: 100 % of control
dose: 44.0 mg/kg/injection, schedule: Q01DX010 (ip), vehicle: steriod suspending solution
  T/C: 86 % of control

## CN(/N=N/N(C)c1ccccc1)c1ccccc1
[1]
  T/C: 115 % of control
[2]
  T/C: 103 % of control
[3]
  T/C: 111 % of control
[4]
  T/C: 100 % of control

## COc1cc(-c2ccc(Nc3ccccc3C(=O)O)c(OC)c2)ccc1Nc1ccccc1C(=O)O
[5]
  T/C: 107 % of control
[6]
  T/C: 114 % of control and 117 % of control
[7]
  T/C: 117 % of control

## C[C@]12C=CC(=O)C=C1CC[C@@H]1[C@@H]2CC[C@]2(C)OC(=O)CC[C@@H]12
dose: 12.5 mg/kg/injection, schedule: Q01DX010 (sc), vehicle: steriod suspending solution
  T/C: 107 % of control
dose: 25.0 mg/kg/injection, schedule: Q01DX010 (sc), vehicle: steriod suspending solution
  T/C: 107 % of control
dose: 50.0 mg/kg/injection, schedule: Q01DX010 (sc), vehicle: steriod suspending solution
  T/C: 107 % of control
dose: 100.0 mg/kg/injection, schedule: Q01DX010 (sc), vehicle: steriod suspending solution
  T/C: 100 % of control

## O=C(C[C@H]1CCC[C@H](CC(=O)c2ccccc2)N1)c1ccccc1
[5]
  T/C: 92 % of control
[6]
  T/C: 107 % of control
[7]
  T/C: 107 % of control

## COc1cc2c3c(c4ccc(O)cc4c2cc1OC)[C@@H](O)[C@@H]1CCCN1C3
dose: 2.5 mg/kg/injection, schedule: Q01DX009 (ip), vehicle: water
  T/C: 98 % of control
dose: 5.0 mg/kg/injection, schedule: Q01DX009 (ip), vehicle: water
  T/C: 113 % of control
dose: 15.0 mg/kg/injection, schedule: Q01DX009 (ip), vehicle: water
  T/C: 110 % of control
dose: 20.0 mg/kg/injection, schedule: Q01DX009 (ip), vehicle: water
  T/C: 163 % of control
dose: 20.0 mg/kg/injection, schedule: Q01DX010 (ip), vehicle: water
  T/C: 113 % of control
dose: 30.0 mg/kg/injection, schedule: Q01DX010 (ip), vehicle: water
  T/C: 86 % of control

## CCc1c(CC(=O)O)c2cc(C)ccc2n1Cc1ccc(Cl)cc1
[7]
  T/C: 107 % of control

## C=C(C(=O)OC1CC2CCC(C1)N2C)c1ccccc1 (centres undefined)
[8]
  T/C: 92 % of control
dose: 2.5 mg/kg/injection, schedule: Q01DX010 (ip), vehicle: saline
  T/C: 92 % of control
[9]
  T/C: 100 % of control
[10]
  T/C: 107 % of control

## CS(=O)(=O)OCC(O)C(O)C(O)C(O)COS(C)(=O)=O (centres undefined)
[6]
  T/C: 107 % of control
[7]
  T/C: 103 % of control and 100 % of control
[11]
  T/C: 107 % of control
[12]
  T/C: 107 % of control and 121 % of control

## O=C1C(=O)N(CN(CCO)CCO)c2ccccc21
[7]
  T/C: 96 % of control
[11]
  T/C: 100 % of control
[12]
  T/C: 100 % of control
[13]
  T/C: 100 % of control

## O=C(Nc1ccc(C2=NCCCN2)cc1)c1ccc(C(=O)Nc2ccc(C3=NCCCN3)cc2)cc1
dose: 1.0 mg/kg/injection, schedule: Q01DX010 (ip), vehicle: saline
  T/C: 109 % of control
dose: 2.0 mg/kg/injection, schedule: Q01DX010 (ip), vehicle: saline
  T/C: 113 % of control and 118 % of control
dose: 8.0 mg/kg/injection, schedule: Q01DX010 (ip), vehicle: saline
  T/C: 150 % of control

## CCn1cnc2c(=S)nc[nH]c21
[2]
  T/C: 114 % of control

## CC(=O)OC(C)(C)/C=C/C(=O)[C@](C)(O)[C@H]1[C@H](O)C[C@@]2(C)[C@@H]3CC=C4[C@@H](CC[C@H](O)C4(C)C)[C@]3(CO)C(=O)C[C@]12C
dose: 0.16 mg/kg/injection, schedule: Q01DX010 (ip), vehicle: saline
  T/C: 103 % of control
dose: 0.25 mg/kg/injection, schedule: Q01DX010 (ip), vehicle: saline
  T/C: 100 % of control
dose: 0.38 mg/kg/injection, schedule: Q01DX010 (ip), vehicle: saline
  T/C: 103 % of control
dose: 0.57 mg/kg/injection, schedule: Q01DX010 (ip), vehicle: saline
  T/C: 103 % of control

## O=C(O)c1[nH]c(=O)[nH]c(=O)c1F
[8]
  T/C: 106 % of control
[9]
  T/C: 236 % of control
[10]
  T/C: 106 % of control

## COCCOC
dose: 300.0 mg/kg/injection, schedule: Q01DX010 (ip), vehicle: saline
  T/C: 100 % of control
dose: 450.0 mg/kg/injection, schedule: Q01DX010 (ip), vehicle: saline
  T/C: 107 % of control
dose: 675.0 mg/kg/injection, schedule: Q01DX010 (ip), vehicle: saline
  T/C: 103 % of control

## O=NN(CCCl)C(=O)NCCCl
dose: 6.25 mg/kg/injection, schedule: Q01DX010 (ip), vehicle: saline
  T/C: 265 % of control and 290 % of control
[5]
  T/C: 150 % of control and 170 % of control

## CC(=O)N(C)C
[3]
  T/C: 94 % of control and 100 % of control
[4]
  T/C: 105 % of control and 100 % of control
[14]
  T/C: 105 % of control and 100 % of control
dose: 500.0 mg/kg/injection, schedule: Q01DX010 (ip), vehicle: saline
  T/C: 100 % of control

## COc1cc2c3c(c4cc(OC)c(OC)cc4c2cc1OC)CN1CCC[C@H]1C3
dose: 3.9 mg/kg/injection, schedule: Q01DX010 (ip), vehicle: saline
  T/C: 115 % of control
dose: 7.8 mg/kg/injection, schedule: Q01DX010 (ip), vehicle: saline
  T/C: 107 % of control

## O=P1(N(CCCl)CCCl)NCCCO1 (centres undefined)
dose: 2.9 mg/kg/injection, schedule: Q01DX010 (ip), vehicle: saline
  T/C: 98 % of control
dose: 5.7 mg/kg/injection, schedule: Q01DX010 (ip), vehicle: saline
  T/C: 106 % of control
dose: 11.3 mg/kg/injection, schedule: Q01DX010 (ip), vehicle: saline
  T/C: 111 % of control

## CNC(C)C(O)c1ccccc1 (centres undefined)
dose: 37.5 mg/kg/injection, schedule: Q01DX010 (ip), vehicle: saline
  T/C: 96 % of control
dose: 75.0 mg/kg/injection, schedule: Q01DX010 (ip), vehicle: saline
  T/C: 92 % of control

## O=c1ccc2ccccc2o1
[7]
  T/C: 107 % of control
[11]
  T/C: 107 % of control
[12]
  T/C: 107 % of control

## NCC(=O)NCCCCCCNCCCCCCNC(=O)CN
[7]
  T/C: 100 % of control
[11]
  T/C: 100 % of control
[12]
  T/C: 100 % of control
[13]
  T/C: 100 % of control

## CS(=O)(=O)OCC(O)C(O)COS(C)(=O)=O (centres undefined)
dose: 20.0 mg/kg/injection, schedule: Q01DX010 (ip), vehicle: saline
  T/C: 107 % of control
dose: 40.0 mg/kg/injection, schedule: Q01DX010 (ip), vehicle: saline
  T/C: 107 % of control
dose: 80.0 mg/kg/injection, schedule: Q01DX010 (ip), vehicle: saline
  T/C: 107 % of control
[11]
  T/C: 103 % of control
dose: 160.0 mg/kg/injection, schedule: Q01DX010 (ip), vehicle: saline
  T/C: 117 % of control
[12]
  T/C: 103 % of control
[13]
  T/C: 107 % of control
dose: 800.0 mg/kg/injection, schedule: Q01DX010 (ip), vehicle: saline
  T/C: 89 % of control

## CCC(=O)O[C@H]1CC[C@H]2[C@@H]3CCC4=CC(=O)CC[C@]4(C)[C@H]3CC[C@]12C
dose: 62.5 mg/kg/injection, schedule: Q01DX010 (sc), vehicle: steriod suspending solution
  T/C: 96 % of control
dose: 125.0 mg/kg/injection, schedule: Q01DX010 (sc), vehicle: steriod suspending solution
  T/C: 100 % of control
dose: 250.0 mg/kg/injection, schedule: Q01DX010 (sc), vehicle: steriod suspending solution
  T/C: 100 % of control
dose: 500.0 mg/kg/injection, schedule: Q01DX010 (sc), vehicle: steriod suspending solution
  T/C: 100 % of control

## Nc1c(Br)cc2c(c1Br)Cc1cc([N+](=O)[O-])ccc1-2
[1]
  T/C: 115 % of control
[2]
  T/C: 107 % of control and 110 % of control
[3]
  T/C: 107 % of control
[4]
  T/C: 110 % of control and 115 % of control
[14]
  T/C: 107 % of control

## Cc1ccccn1
[3]
  T/C: 96 % of control
[4]
  T/C: 100 % of control
[14]
  T/C: 96 % of control

## COc1cc(C[C@H]2c3cc(OC)c(OC)cc3CCN2C)c(Oc2cc3c(cc2OC)-c2c(OC)c(OC)cc4c2[C@H](C3)N(C)CC4)cc1OC
[6]
  T/C: 92 % of control
[7]
  T/C: 92 % of control

## CCC12CC(C(=O)OC)=C3Nc4cc(OC)ccc4C34CCN(CC3OC31)C42 (centres undefined)
dose: 3.75 mg/kg/injection, schedule: Q01DX010 (ip), vehicle: saline
  T/C: 96 % of control
dose: 7.5 mg/kg/injection, schedule: Q01DX010 (ip), vehicle: saline
  T/C: 100 % of control
dose: 15.0 mg/kg/injection, schedule: Q01DX010 (ip), vehicle: saline
  T/C: 90 % of control
dose: 30.0 mg/kg/injection, schedule: Q01DX010 (ip), vehicle: saline
  T/C: 96 % of control
